Measured values reported in PubChem BioAssay (NCI).
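Dose response: 5 concentrations. Exposure: 48 h. Format: 96-well plates. Endpoint: linear interpolation; highest concentration if not reached. The concentration for 50% growth inhibition is given as GI50. TGI: concentration producing complete growth inhibition.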

How the values were obtained:
Experiment in all cases: NCI anticancer screen, dose series, 48 h
[1] = tested on: SK-MEL-5 melanoma
[2] = tested on: SK-MEL-28 melanoma
[3] = tested on: ACHN renal
[4] = tested on: NCI-H460 lung
[5] = tested on: UO-31 renal
[6] = tested on: MOLT-4 leukemia
[7] = tested on: SF-295 CNS
[8] = tested on: SF-539 CNS
[9] = tested on: UACC-62 melanoma
[10] = tested on: HS 578T breast
[11] = tested on: HCT-15 colon
[12] = tested on: PC-3 prostate
[13] = tested on: T-47D breast

## CC(C)[Si](OCC1CC(C[C@H]2CC(C[C@H]3C[C@@H](CO[Si](C(C)C)(C(C)C)C(C)C)OC(C)(C)O3)OC(C)(C)O2)OC(C)(C)O1)(C(C)C)C(C)C (stereo partly specified)
[1]
  TGI: > 100 µM
[2]
  TGI: > 100 µM
[3]
  TGI: > 100 µM
[4]
  TGI: > 100 µM
[5]
  TGI: > 100 µM
[6]
  TGI: > 100 µM
[7]
  TGI: > 100 µM
[8]
  TGI: > 100 µM
[9]
  TGI: > 100 µM

## CC(C)/C(Cl)=N\OC(=O)Nc1ccc(F)c([N+](=O)[O-])c1
[10]
  TGI: 25.1 µM
[1]
  TGI: 22.4 µM
[11]
  TGI: 6.75 µM
[2]
  TGI: 17.4 µM
[12]
  TGI: 32.2 µM
[3]
  TGI: 3.39 µM
[4]
  TGI: 7.89 µM
[5]
  TGI: 17.9 µM
[6]
  TGI: 4.94 µM
[7]
  TGI: 37.9 µM
[8]
  TGI: 7.82 µM
[9]
  TGI: 39.1 µM

## O=c1oc2cc(O)ccc2cc1-c1nc2ccccc2s1
[1]
  TGI: 28.5 µM
[11]
  TGI: > 100 µM
[2]
  TGI: > 100 µM
[12]
  TGI: 52.5 µM
[3]
  TGI: 52.4 µM
[13]
  TGI: 95.7 µM
[4]
  TGI: 62.2 µM
[5]
  TGI: 47.6 µM
[6]
  TGI: 17.4 µM
[7]
  TGI: 89.3 µM
[8]
  TGI: 46.6 µM
[9]
  TGI: 41.7 µM

## CC(=O)[O-].CC(=O)[O-].O=C(N/N=C/c1cc(Cl)cc(Cl)c1[OH2+])c1ccncc1.[Zn+2]
[1]
  TGI: > 100 µM
[11]
  TGI: > 100 µM
[2]
  TGI: > 100 µM
[3]
  TGI: > 100 µM
[4]
  TGI: > 100 µM
[5]
  TGI: > 100 µM
[6]
  TGI: > 100 µM
[7]
  TGI: > 100 µM
[8]
  TGI: > 100 µM
[9]
  TGI: > 100 µM

## Cn1c(=O)c2nc3nnc(C#N)c(N)n3c2n(C)c1=O
[1]
  TGI: > 100 µM
[11]
  TGI: > 100 µM
[2]
  TGI: > 100 µM
[12]
  TGI: > 100 µM
[3]
  TGI: > 100 µM
[13]
  TGI: > 100 µM
[4]
  TGI: > 100 µM
[5]
  TGI: > 100 µM
[6]
  TGI: > 100 µM
[7]
  TGI: > 100 µM
[8]
  TGI: > 100 µM
[9]
  TGI: > 100 µM

## COc1ccc(N=Nc2c(C)c(C#N)c(=S)n(C3OC(COC(C)=O)C(OC(C)=O)C(OC(C)=O)C3OC(C)=O)c2-c2ccccc2)cc1 (stereo unspecified)
[11]
  TGI: 77.2 µM
[2]
  TGI: 20.3 µM
[12]
  TGI: 21.3 µM
[3]
  TGI: > 100 µM
[13]
  TGI: 41.2 µM
[4]
  TGI: > 100 µM
[5]
  TGI: 94.7 µM
[6]
  TGI: 47.9 µM
[7]
  TGI: 82.1 µM

## COc1cc(/C=C/c2sc3ccccc3[n+]2C)ccc1N(C)C
[10]
  TGI: > 100 µM
[1]
  GI50: 5.49 µM
  TGI: 18.5 µM
[11]
  TGI: > 100 µM
[2]
  GI50: 12.4 µM
  TGI: 25.7 µM
[12]
  GI50: 12.8 µM
  TGI: 32.3 µM
[3]
  TGI: 28.6 µM
[13]
  GI50: 1.36 µM
  TGI: 10.8 µM
[4]
  GI50: 13.4 µM
  TGI: 38 µM
[6]
  GI50: 8.06 µM
  TGI: 30 µM
[7]
  TGI: > 100 µM
[8]
  TGI: 31.6 µM
[9]
  GI50: 10.4 µM
  TGI: 22.4 µM

## COc1ccc(N2CCN(Cc3c(C(C)=O)[n+](=O)c4ccccc4n3[O-])CC2)cc1
[10]
  TGI: > 100 µM
[1]
  TGI: > 100 µM
[11]
  TGI: > 100 µM
[2]
  TGI: > 100 µM
[12]
  TGI: > 100 µM
[3]
  TGI: > 100 µM
[13]
  TGI: > 100 µM
[4]
  TGI: > 100 µM
[5]
  TGI: > 100 µM
[7]
  TGI: > 100 µM
[9]
  TGI: > 100 µM

## O=C(Nc1nncs1)NS(=O)(=O)n1cnc2ccccc21
[10]
  TGI: > 100 µM
[1]
  TGI: > 100 µM
[11]
  TGI: > 100 µM
[2]
  TGI: > 100 µM
[12]
  TGI: > 100 µM
[3]
  TGI: > 100 µM
[13]
  TGI: > 100 µM
[4]
  TGI: > 100 µM
[6]
  TGI: > 100 µM
[7]
  TGI: > 100 µM
[8]
  TGI: > 100 µM
[9]
  TGI: > 100 µM
